Read-outs that look alike come from different tables or passages of the source.
Columns and labels:
[1] = test system: human MCF-7 breast cancer; experiment: MTT antiproliferative assay, MCF-7; type: cell-based; conditions: sextuplicates, read-out: GI50 in vitro values, MCF-7
Procedure: (§1) Human mammary carcinoma MCF-7 (ATCC HTB22) cells were cultured in RPMI supplemented with 10% FBS. The U87 cells (ATCC HTB-14) were cultured in DMEM culture medium, while the A549 cells (DSMZ ACC107) were cultured in RPMI culture medium supplemented with 10% heat-inactivated FBS. The GBM Hs683 (ATCC HTB-138) cells were cultivated in DMEM supplemented with 10% FBS. The human uterine sarcoma MES-SA (ATCC CRL1966) and MES-SA/D×5 cells were cultured in RPMI-1640 medium supplemented with 10% FBS with MES SA/D×5 maintained in the presence of 500 nM Doxorubicin (Sigma). SKMEL-28 cells (ATCC HTB72) and U373 GBM cells (ECACC 08061901) were cultured in RPMI culture medium supplemented with 10% heat-inactivated FBS. Cell culture media were supplemented with 4 mM glutamine (Lonza code BE17-605E), 100 μg/mL gentamicin (Lonza code 17-5182), and penicillin-streptomycin (200 units/ml and 200 μg/ml) (Lonza code 17-602E). The MDA-MB-231 (ATCC HTB-26) epithelial mammary adenocarcinoma cells were cultured in Eagle's minimum essential medium (EMEM; Invitrogen) containing 5% fetal calf serum (FCS, Cambrex), 2 mM L-glutamine (Invitrogen), 0.06% HEPES (Invitrogen) and penicillin (50 IU/ml)/streptomycin (50 µg/ml; Invitrogen) at 37° C. in a humidified atmosphere of 5% CO2 in air. Transformed mouse NPCs were cultured in suspension under neurosphere conditions at 37° C. in a humidified atmosphere of […] and 5% CO2 in DMEM F12 (Invitrogen 11320-074) supplemented with 1×B27 supplement (Invitrogen 17504-044), 5% penicillin-streptomycin (Biochrom 10378-017), 10 ng/ml EGF (R&D systems 236-EG), 10 ng/ml FGF (PeproTech 100-18B).
(§2) Antiproliferative properties of the synthesized compounds were evaluated by the MTT assay. All compounds were dissolved in DMSO at a concentration of either 100 μM or 50 μM prior to cell treatment. The cells were trypsinized and seeded at various cell concentrations depending on the cell type. The cells were grown for 24 h to 72 h, treated with compounds at concentrations ranging from 0.001 to 100 μM and incubated for 48 or 72 h in 100 or 200 μL media depending on the cell line used. The number of experiments and replicates varied depending on the cell line. Cells treated with 0.1% DMSO were used as a negative control; 1 μM PAO was used as a positive control.
(§3) The synthesized C12-Wittig derivatives were evaluated for antiproliferative activities in a panel of cancer cell lines that included apoptosis-resistant human U373 glioblastoma (GBM) (Lefranc et al., 2013), human A549 non-small cell lung cancer (NSCLC) and human SKMEL-28 melanoma (Mathieu et al., 2009) as well as apoptosis-sensitive human Hs683 anaplastic oligodendroglioma (Lefranc et al., 2013) and human MCF-7 breast cancer (Frolova et al., 2013).

[2] = target: T1, vanilloid site of TRPV1 receptor from rats spinal cord membranes (Rattus norvegicus, UniProt O35433); experiment: [3H]-resiniferatoxin binding assay; conditions: 2 nM [3H]-RTX
T1 construct: from tissue; host or cells: rat spinal cord membranes
Procedure: To evaluate the possible affinity of different analogues to the vanilloid site of TRPV1, a [^3H]-resiniferatoxin ([^3H]-RTX) binding assay was performed as previously described (Galli et al. 2004 and Lee et al., 2006). Briefly, rats spinal cord were homogenized in buffer A (pH 7.4, 5 mM KCl, 5.8 mM NaCl, 2 mM MgCl2, 0.75 mM CaCl2, 137 mM sucrose, and 10 mM HEPES) and centrifuged for 10 minutes at 1000 g at 4° C. and the supernatant was further centrifuged for 30 min at 35,000 g at 4° C. The resulting pellets were than resuspended in buffer A and frozen until assayed. The binding reaction was performed in a final volume of 500 μL, containing buffer A (plus 0.25 mg/mL bovine serum albumin, BSA), membranes (0.5 mg/mL), and 2 nM [^3H]-RTX in the presence or absence of analogues of 1 (10 μM). For the measurement of the nonspecific binding, 100 μM nonradioactive RTX were included used. The reaction was started by incubating tubes at 37° C. during 60 minutes, and stopped by transferring the tubes to ice bath and adding 100 μg of bovine α1-acid glycoprotein (to reduce nonspecific binding). […] The pellet was used to quantify the scintillation counting. The specific binding was calculated as the difference of the total and nonspecific binding and the results were measured as % of specific binding.

[3] = test system: human Hs683 anaplastic oligodendroglioma; experiment: MTT antiproliferative assay, Hs683; type: cell-based; conditions: sextuplicates, read-out: GI50 in vitro values, Hs683
Procedure: as §1, §2, §3

[4] = test system: MDA-MB-231 breast cancer cells expressing TRPV1; experiment: Intracellular Ca2+ measurements, MDA-MB-231; type: cell-based, human; conditions: 1 at 80 μM, 5 at 20 μM; Fura-2
Procedure: Human mammary carcinoma MCF-7 (ATCC HTB22) cells were cultured in RPMI supplemented with 10% FBS. The U87 cells (ATCC HTB-14) were cultured in DMEM culture medium, while the A549 cells (DSMZ ACC107) were cultured in RPMI culture medium supplemented with 10% heat-inactivated FBS. The GBM Hs683 (ATCC HTB-138) cells were cultivated in DMEM supplemented with 10% FBS. The human uterine sarcoma MES-SA (ATCC CRL1966) and MES-SA/D×5 cells were cultured in RPMI-1640 medium supplemented with 10% FBS with MES SA/D×5 maintained in the presence of 500 nM Doxorubicin (Sigma). SKMEL-28 cells (ATCC HTB72) and U373 GBM cells (ECACC 08061901) were cultured in RPMI culture medium supplemented with 10% heat-inactivated FBS. Cell culture media were supplemented with 4 mM glutamine (Lonza code BE17-605E), 100 μg/mL gentamicin (Lonza code 17-5182), and penicillin-streptomycin (200 units/ml and 200 μg/ml) (Lonza code 17-602E). […]
Intracellular Ca^2+ measurements. Cells were grown on glass coverslips for fluorescence imaging. The cytosolic calcium was measured using Fura-2-loaded cells. […] Fluorescence was excited at 350 and 380 nm alternately using a monochromator (Polychrome IV; TILL Photonics, Planegg, Germany), and captured by a Cool SNAP HQ camera (Princeton Instruments, France) after filtration through a long-pass filter (510 nm). […]

[5] = test system: human U373 glioblastoma (GBM); experiment: MTT antiproliferative assay, U373; type: cell-based; conditions: 72 h treatment, sextuplicates, read-out: GI50 in vitro values, U373
Procedure: as §1, §2, §3

human SKMEL-28 melanoma = experiment: MTT antiproliferative assay, SKMEL-28; type: cell-based; conditions: sextuplicates, read-out: GI50 in vitro values, SKMEL-28
Procedure: as §1, §2, §3

[6] = test system: panel of cancer cell lines (A549, SKMEL-28, MCF-7, U373, Hs683); experiment: MTT antiproliferative assay, panel of five cancer cell lines; type: cell-based, human; conditions: for GI50: mean over five cell lines, 72 h treatment, MTT assay, read-out: GI50 in vitro values, Mean + SEM
Procedure: as §2, §3

T1 sequence (O35433 whole entry): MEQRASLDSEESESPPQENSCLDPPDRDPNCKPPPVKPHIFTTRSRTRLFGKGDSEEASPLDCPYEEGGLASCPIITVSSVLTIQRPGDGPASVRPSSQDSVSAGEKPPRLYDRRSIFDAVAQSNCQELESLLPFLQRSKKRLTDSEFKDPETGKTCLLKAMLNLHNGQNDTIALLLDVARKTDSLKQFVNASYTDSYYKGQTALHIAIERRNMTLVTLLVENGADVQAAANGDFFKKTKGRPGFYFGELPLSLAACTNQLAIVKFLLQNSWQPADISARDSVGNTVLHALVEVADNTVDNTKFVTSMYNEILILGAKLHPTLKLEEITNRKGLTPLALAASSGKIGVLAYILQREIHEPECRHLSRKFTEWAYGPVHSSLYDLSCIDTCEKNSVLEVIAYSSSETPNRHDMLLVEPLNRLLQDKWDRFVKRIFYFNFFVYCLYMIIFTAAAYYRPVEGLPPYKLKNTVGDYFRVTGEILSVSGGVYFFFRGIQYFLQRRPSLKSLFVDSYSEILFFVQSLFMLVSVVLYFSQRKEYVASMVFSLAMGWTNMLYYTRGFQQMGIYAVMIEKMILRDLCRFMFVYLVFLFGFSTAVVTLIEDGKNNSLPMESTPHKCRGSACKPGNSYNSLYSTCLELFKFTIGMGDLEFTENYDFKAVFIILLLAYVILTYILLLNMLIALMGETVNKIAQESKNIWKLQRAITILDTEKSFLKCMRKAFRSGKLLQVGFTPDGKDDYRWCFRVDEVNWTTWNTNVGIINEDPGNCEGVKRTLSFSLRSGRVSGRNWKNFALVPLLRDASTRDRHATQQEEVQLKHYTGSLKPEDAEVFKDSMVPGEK

| SMILES | GI50 ([1]; Homo sapiens, MCF7, 72 h treatment) [µM] | inhibition at 10 µM ([2]; read-out: inhibition of specific binding of [3H]-resiniferatoxin (RTX)) [%] | GI50 ([3]; Homo sapiens, Hs 683, 72 h treatment) [µM] | [Ca2+]i response [4] | GI50 ([5]; Homo sapiens, U373 MG) [µM] | GI50 (human SKMEL-28 melanoma; Homo sapiens, SK-MEL-28, 72 h treatment) [µM] | antiproliferative activity in the cancer cell panel ([6]; 72-hour treatment) | GI50 ([6]; Homo sapiens) [µM] | GI50 ([1]; 72 h treatment) [µM] | inhibition of specific binding of [3H]-resiniferatoxin (RTX) ([2]; 10 μM) | GI50 ([3]; 72 h treatment) [µM] | GI50 [5] [µM] | GI50 (human SKMEL-28 melanoma; 72 h treatment) [µM] | resistant populations in growth curves ([6]; all 5 cultures, concentrations just slightly exceeding GI50, close to 0% cell viability) | GI50 [6] [µM] |
| --- | --- | --- | --- | --- | --- | --- | --- | --- | --- | --- | --- | --- | --- | --- | --- |
| CC1(C)CCC[C@]2(C)[C@@H](C=O)C(C=O)=CC[C@@H]12 [Compound 1, Polygodial] | 75 | 76 | 95 | transient and synchronous [Ca^2+]i increase | > 99 | 65 | ineffective | > 85 |  |  |  |  |  |  |  |
| COC(=O)/C=C/C1=CC[C@H]2C(C)(C)CCC[C@]2(C)[C@H]1C=O [Compound 5] |  |  |  | sustained and asynchronous [Ca^2+] increases |  |  |  |  | 7 | failed to show any activity | 24 | 22 | 27 | absence of resistant populations | 20 ± 3 |

— patent US20180237362A1, “NOVEL POLYGODIAL ANALOGS FOR THE TREATMENT OF CANCER AND OTHER PROLIFERATIVE DISEASES” (THE BOARD OF REGENTS OF THE UNIVERSITY OF TAXAS SYSTEM, priority 2015, published 2018)
